Source: US20230265483A1, “METHODS FOR TESTING ANDEXANET POTENCY” (Alexion Pharmaceuticals, Inc., priority 2020, published 2023)

What was measured:
bovine fXa (BFXa) = target: T1, bovine fXa (BFXa) (Bos taurus, UniProt P00743); assay: Inhibition of bovine fXa by betrixaban; format: biochemical; conditions: in words
T1 construct: purchased Hyphen BioMed (France) BE1010/BE101K

BFXa = target: T2, BFXa (Bos taurus, UniProt P00743); assay: Direct potency assay with BFXa/betrixaban mixture; format: biochemical, bovine; conditions: BFXa (1×)/betrixaban (1×) vs HFXa (1×)/betrixaban (1×), no andexanet
T2 construct: purchased Hyphen BioMed (France) BE1010/BE101K
T2 sequence (P00743 234-492 limits assumed): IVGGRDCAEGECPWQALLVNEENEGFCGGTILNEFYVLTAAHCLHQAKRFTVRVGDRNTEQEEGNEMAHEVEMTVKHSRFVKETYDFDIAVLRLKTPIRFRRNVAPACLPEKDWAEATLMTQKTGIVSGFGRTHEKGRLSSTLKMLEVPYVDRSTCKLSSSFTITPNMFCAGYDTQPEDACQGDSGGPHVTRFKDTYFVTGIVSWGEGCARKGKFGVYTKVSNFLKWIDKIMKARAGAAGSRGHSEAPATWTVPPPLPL
T2 sequence (P00743 41-180 partner limits assumed): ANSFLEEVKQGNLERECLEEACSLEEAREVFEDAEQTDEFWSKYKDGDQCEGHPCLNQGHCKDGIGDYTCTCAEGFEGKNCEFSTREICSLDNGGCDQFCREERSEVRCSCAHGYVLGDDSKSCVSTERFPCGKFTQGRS
Experimental: The stock solutions for HFXa, BFXa and betrixaban were first prepared separately. FXa/betrixaban mixture was prepared by mixing different volumes of the stock solutions of FXa and betrixban, resulting in HFXa/betrixaban or BFXa/betrixaban. The FXa/betrixaban mixture (50 μL) was added to the reaction mixture as described in the direct potency assay. The HFXa (1×)/betrixaban (1×) mixture (O) was used as a control.
Preparation of fXa and Betrixaban (fXa Inhibitor) • a) Dilute the fXa to 50 μg/mL then further dilute to 1.0 μg/mL in assay buffer. • b) Dilute fXa inhibitor (226 μg/mL betrixaban stock) to 40 ng/mL in assay buffer as described in the table below. • c) Add equal volumes of diluted fXa and fXa inhibitor (betrixaban) into an appropriate container by combining 6 mL of FXa at 1.0 μg/mL and 6 mL of fXa inhibitor at 40 ng/mL. Mix well. • 4. Preparation of fXa and fXa Inhibitor Controls • a) Prepare the fXa control by mixing 100 μL of diluted fXa with 300 μL of assay buffer. • b) Prepare fXa inhibitor (betrixaban) control by mixing 200 μL of the fXa inhibitor mixture and 200 μL assay buffer. • 5. Transfer 50 μL/well of reference standard (RS), assay control (CTRL) and test samples (TS) to the assay plate. • 6. […] Read the microplate at 405 nm as the test wavelength and 490 nm as the reference wavelength. • 14. […]

T1 sequence (P00743 234-492 limits assumed): as the sequence (P00743 234-492 limits assumed) above
T1 sequence (P00743 41-180 partner limits assumed): as the sequence (P00743 41-180 partner limits assumed) above

COc1ccc(NC(=O)c2ccc(C(=N)N(C)C)cc2)c(C(=O)Nc2ccc(Cl)cn2)c1 [betrixaban]
potency of inhibition of bovine fXa compared with human fXa (bovine fXa (BFXa)): less potent | inhibition of BFXa activity (background in absence of andexanet) (BFXa): less inhibition of BFXa activity
